One series has as its system rps29−/− embryos. Particulars: in vivo, cited from earlier work.
The conditions of series [1]: antipsychotic potency; cited from earlier work.
The conditions of series [2]: in vivo; cited from earlier work.
For series [3], the system named is CD34+ hematopoietic stem and progenitor cells with rps19 knockdown. Particulars: cited from earlier work.
For series [4], the system named is Caco-2 cells.
Series [5] has as its system embryos of Rps29 heterozygote fish. The experiment in a line: Zebra fish assay (tail mutation and anemia classification, o-dianisidine staining).
The next series is described as follows: in vitro. Particulars: human.
The subject of the next series is P-gp (MDR1). The experiment in a line: in vitro. Conditions: dog.
Series [6] deals with Caco-2 cells. Particulars: cited from earlier work.
The subject of the next series is DBA murine model. Conditions: injection; cited from earlier work.
In series [7] the target is p70 ribosomal S6 kinase (p70S6K) (Homo sapiens (Human), UniProt P23443). Conditions: profiling of over 100 kinases; cited from earlier work.
Chain of p70 ribosomal S6 kinase (p70S6K) (P23443 whole entry): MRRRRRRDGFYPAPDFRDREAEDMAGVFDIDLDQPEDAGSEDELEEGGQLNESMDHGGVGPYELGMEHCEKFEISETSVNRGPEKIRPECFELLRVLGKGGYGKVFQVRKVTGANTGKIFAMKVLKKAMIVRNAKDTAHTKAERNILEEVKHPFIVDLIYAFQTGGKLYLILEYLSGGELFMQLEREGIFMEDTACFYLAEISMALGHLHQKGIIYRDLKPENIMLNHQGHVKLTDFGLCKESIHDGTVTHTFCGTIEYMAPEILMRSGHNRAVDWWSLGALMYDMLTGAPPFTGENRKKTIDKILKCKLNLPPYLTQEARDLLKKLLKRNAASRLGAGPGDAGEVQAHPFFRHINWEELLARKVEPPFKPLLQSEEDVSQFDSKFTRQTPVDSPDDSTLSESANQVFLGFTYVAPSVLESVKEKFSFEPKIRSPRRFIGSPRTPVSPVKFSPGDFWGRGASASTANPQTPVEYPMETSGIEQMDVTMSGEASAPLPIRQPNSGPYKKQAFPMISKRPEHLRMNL
[8] abbreviates: 10 μM of the compound, 48 hours of treatment from 24 hours post fertilization.
The mark [9] stands for this setting: Caco-2, Efflux ratio Caco-2 cells.
Where [10] appears, read: Caco-2, Permeability coefficient (Papp) Caco-2 cells (A -> B).
[11] abbreviates: Caco-2, Permeability coefficient (Papp) Caco-2 cells (B -> A).
[12] abbreviates: MDCK-MDR1, Efflux ratio MDCK-MDR1 cells.
Where [13] appears, read: MDCK-MDR1, Permeability coefficient (Papp) MDCK-MDR1 cells (A -> B).
Setting [14] is: MDCK-MDR1, Permeability coefficient (Papp) MDCK-MDR1 cells (B -> A).

“And” between values parts separate entries of the source, which are not always exact repeats. Equal values may be shown once. Read-outs that look alike come from different tables or passages of the source.

What is called efflux ratio is a quotient of directional permeabilities that is used to spot active efflux. For orientation: Papp A→B means how fast a substance crosses the layer from the apical side. Low readings indicate slow passage, high ones fast passage. For orientation: Papp B→A means how fast a substance crosses the layer from the basolateral side.

Regarding `OCCN1CCN(CCCN2c3ccccc3Sc3ccc(Cl)cc32)CC1` [Perphenazine, 4-[3-(2-Chloro-10H-phenothiazin-10-yl)propyl]-1-piperazineethanol], in the series with rps29−/− embryos (zebrafish), the “Endothelial defect in rps29 mutant embryos (in words)” value (“Endothelial defect” for short) is given as “successfully rescued the endothelial defect”. Besides, the “Potency relative to chlorpromazine” value in series [1] was “approximately 5 times”. In addition, the Oral bioavailability result in series [2] was “approximately 40%”.

With `NCCNS(=O)(=O)c1cccc2c(Cl)cccc12` [Compound A-3], in [3] (in vitro), the “Concentration decreasing the levels of p21 in CD34+ cells” value is 1 to 50 µM. The “p53 and p21 levels or nuclear localization (in words)” value in series [3] (rps19 knockdown by siRNA) was “decreased p53 and p21 levels or nuclear localization”. Besides, the “Hemoglobin levels in the zebrafish embryo (in words)” value in the series with rps29−/− embryos was “rescued hemoglobin levels”. In the series on rps29−/− embryos (zebrafish), the “Morphology of the embryo head (in words)” value is recorded as “improved the morphology of the apoptotic embryo head”.

`NCCCCCCNS(=O)(=O)c1cccc2c(Cl)cccc12` [Compound W-7]: the “Hemoglobin levels in the zebrafish embryo (in words)” value in the series on rps29−/− embryos is recorded as “rescued hemoglobin levels”. Moreover, the “Endothelial defect” value in the series with rps29−/− embryos (zebrafish) is “rescued the endothelial defect”.

Regarding `NCCCCCCNS(=O)(=O)c1cccc2ccccc12` [Compound W-5], in the series on rps29−/− embryos (zebrafish), the “Vascular defects in rps29 mutant embryos (in words)” value is recorded as “rescued vascular defects”.

With `CC1(CN2CCC(n3c(=O)[nH]c4ccccc43)CC2)OCc2ccccc2-n2cccc21.O=C(O)/C=C\C(=O)O` (stereo not shown) [CGS-9343B], in the series with rps29−/− embryos (zebrafish), the “Endothelial defect” value was “successfully rescued the endothelial defect”.

Regarding `CS(=O)(=O)NCC1CCN(CC(O)CN2c3ccccc3Sc3ccc(C(F)(F)F)cc32)CC1` (stereo not shown) [MT-036, N-((1-(2-hydroxy-3-(2-(trifluoromethyl)-10H-phenothiazin-10-yl)propyl)piperidin-4-yl)methyl)methanesulfonamide], in the series on Caco-2 cells [4] (apical to basolateral, 2-hour), the “Permeability coefficient (Papp) Caco-2 cells (A -> B)” value is recorded as 8.55 10^−6 cm/s. Moreover, the “Permeability coefficient (Papp) Caco-2 cells (B -> A)” value in the series on Caco-2 cells [4] (basolateral to apical, 2-hour) was 15.93 10^−6 cm/s. In the series on Caco-2 cells [4] (from mean Papp B-A and A-B, 2-hour transport), the “Efflux ratio Caco-2 cells” value amounted to 1.86. Further, the “Permeability coefficient (Papp) MDCK-MDR1 cells (A -> B)” value in the series with MDCK-MDR1 cells (apical to basolateral, 60-min, 37° C.) is listed as 2.85 10^−6 cm/s. In addition, the “Permeability coefficient (Papp) MDCK-MDR1 cells (B -> A)” value with MDCK-MDR1 cells (basolateral to apical, 60-min, 37° C.) is reported as 13.91 10^−6 cm/s. The “Efflux ratio MDCK-MDR1 cells” value with MDCK-MDR1 cells (from mean Papp B-A and A-B, 60-min transport, 37° C.) turned out to be 4.89.

On to `OCCOCCOCCN1CCN(CC(O)CN2c3ccccc3Sc3ccc(C(F)(F)F)cc32)CC1` (stereo not shown) [MT-016, 1-(4-(2-(2-(2-hydroxyethoxy)ethoxy)ethyl)piperazin-1-yl)-3-(2-(trifluoromethyl)-10H-phenothiazin-10-yl)propan-2-ol], for which, in series [5] (setting [8]), the “Ratio of embryos in group MA (mutant anemic)” value was 7% and 9% and 5%; the “Ratio of embryos in group MNA (mutant not anemic)” value is 7% and 8%; the “Ratio of embryos in group MPA (mutant partial anemic)” value is 17% and 10% and 15%; the “Ratio of embryos in group WT (wild type)” value is 69% and 74% and 72%. The efflux ratio at 2 h in “in vitro” (setting [9]) was found to be 1.33. Moreover, the Papp A→B at 2 h in “in vitro” (setting [10]) is 12.5 ×10⁻⁶ cm/s. The Papp B→A at 2 h in the series “in vitro” (setting [11]) worked out at 16.6 ×10⁻⁶ cm/s. Moreover, in the series on P-gp (MDR1) (setting [12]), the efflux ratio at 60 min was > 9.83. Also, the Papp A→B at 60 min in the series with P-gp (MDR1) (setting [13]) came to 1.05 ×10⁻⁶ cm/s. This compound gave a Papp B→A at 60 min with P-gp (MDR1) (setting [14]) of 10.3 ×10⁻⁶ cm/s.

`COCCc1ccc(OCC(O)CNC(C)C)cc1` (stereo not shown) [Metoprolol]: the “Efflux ratio Caco-2 cells” value in the series on Caco-2 cells [4] (human, Caco-2, 2 h) was determined as 1.11. The “Cell permeability of reference compound (in words)” value in the series with Caco-2 cells [6] is recorded as “high cell permeability”. Moreover, in the series “in vitro” (setting [9]), the efflux ratio at 2 h amounted to 0.89. In the series “in vitro” (setting [10]), this compound had a Papp A→B at 2 h of 33.8 ×10⁻⁶ cm/s. In the series “in vitro” (setting [11]), this compound gave a Papp B→A at 2 h of 30.2 ×10⁻⁶ cm/s. For the same compound, the “Efflux ratio MDCK-MDR1 cells” value in the series on MDCK-MDR1 cells (dog, MDCK-MDR1, 60 min) is on record as 0.85. Moreover, the efflux ratio at 60 min with P-gp (MDR1) (setting [12]) came out at 0.81.

Consider `NCCCCCCCCCCNS(=O)(=O)c1cccc2c(Cl)cccc12` [Compound A-7], for which, in the series with rps29−/− embryos (zebrafish), the “Vascular defects in rps29 mutant embryos (in words)” value is given as “rescued vascular defects”.

As to `OCCN1CCN(CCCN2c3ccccc3Sc3ccc(C(F)(F)F)cc32)CC1` [Fluphenazine, 4-[3-[2-(trifluoromethyl)phenothiazin-10-yl]lpropyl]-1-piperazineethanol], the “Endothelial defect” value in the series on rps29−/− embryos (zebrafish) is “successfully rescued the endothelial defect”.

As for `c1ccc2c(c1)Nc1ccccc1S2` [10H-phenothiazine], in the series “in vitro” (Caco-2), the Papp A→B at 2 h was 42.7 ×10⁻⁶ cm/s, the Papp B→A at 2 h came out at 37.7 ×10⁻⁶ cm/s and the efflux ratio at 2 h was 0.88. In addition, in the series on P-gp (MDR1) (MDCK-MDR1), the Papp A→B at 60 min was 53.8 ×10⁻⁶ cm/s, the Papp B→A at 60 min was found to be 38 ×10⁻⁶ cm/s and the efflux ratio at 60 min came out at 0.71.

Regarding `FC(F)(F)c1ccc2c(c1)N(CCCCN1CCCCC1)c1ccccc1S2` [MT-009, 10-(4-(piperidin-1-yl)butyl)-2-(trifluoromethyl)-10H-phenothiazine], the efflux ratio at 2 h in the series “in vitro” (setting [9]) worked out at 0.68. The Papp A→B at 2 h in the series “in vitro” (setting [10]) was found to be 3.81 ×10⁻⁶ cm/s. In addition, the Papp B→A at 2 h in “in vitro” (setting [11]) is 2.61 ×10⁻⁶ cm/s. Further, the “Efflux ratio MDCK-MDR1 cells” value with MDCK-MDR1 cells (dog, MDCK-MDR1, 60 min) is 0. For the same compound, the Papp A→B at 60 min in the series with P-gp (MDR1) (setting [13]) is < 1.42 ×10⁻⁶ cm/s.

In turn, `C=C[C@H]1C[N@@]2CC[C@H]1C[C@@H]2[C@@H](O)c1ccnc2ccc(OC)cc12` [Quinidine] came in with a Papp A→B at 60 min in the series on P-gp (MDR1) (setting [13]) of 10.1 ×10⁻⁶ cm/s. Moreover, the Papp B→A at 60 min in the series on P-gp (MDR1) (setting [14]) stood at 44 ×10⁻⁶ cm/s.

As for `CN1CCN(CCCN2c3ccccc3Sc3ccc(C(F)(F)F)cc32)CC1` [Trifluoperazine, 10-[3-(4-methylpiperazin-1-yl)propyl]-2-(trifluoromethyl)phenothiazine], in the series on DBA murine model, the “Red blood cell number and hemoglobin levels (in words)” value was “significantly increased red blood cell number and hemoglobin levels”; the “p53 activity in the bone marrow (in words)” value is “reduced p53 activity in the bone marrow”. In addition, the “Concentration restoring the percentage of CD71+ cells in an erythroid cell population” value in series [3] (in vitro) was 5 to 20 µM. In addition, the “Erythroid differentiation block (in words)” value in [3] (shRNA against RPS19, primary CD34+ bone marrow cells from DBA patients) is listed as “relieved the erythroid differentiation block”. Besides, in the series on rps29−/− embryos (zebrafish), the “Endothelial defect” value was “successfully rescued the endothelial defect”. Further, the Papp A→B at 60 min in the series on P-gp (MDR1) (setting [13]) was < 0.87 ×10⁻⁶ cm/s. For the same compound, the “Kinase activity of p70S6K (in words)” value in series [7] is reported as “inhibited the activity”.

`CC[C@H]1OC(=O)[C@H](C)[C@@H](O[C@H]2C[C@@](C)(OC)[C@@H](O)[C@H](C)O2)[C@H](C)[C@@H](O[C@@H]2O[C@H](C)C[C@H](N(C)C)[C@H]2O)[C@](C)(O)C[C@@H](C)C(=O)[C@H](C)[C@@H](O)[C@]1(C)O` [Erythromycin]: the “Efflux status of reference compound (in words)” value in the series on Caco-2 cells [6] (Caco-2) is listed as “efflux substrates”. In the series “in vitro” (setting [9]), the efflux ratio at 2 h is > 173. The Papp A→B at 2 h in the series “in vitro” (setting [10]) came out at 0.21 ×10⁻⁶ cm/s. This compound yielded a Papp B→A at 2 h in the series “in vitro” (setting [11]) of 21.9 ×10⁻⁶ cm/s. For the same compound, the efflux ratio at 60 min in the series with P-gp (MDR1) (setting [12]) came to 0.96. For the same compound, the Papp A→B at 60 min in the series on P-gp (MDR1) (setting [13]) came out at 31.9 ×10⁻⁶ cm/s. This compound gave a Papp B→A at 60 min in the series on P-gp (MDR1) (setting [14]) of 30.6 ×10⁻⁶ cm/s.

Consider `CN1CCN(CCCN2c3ccccc3Sc3ccc(Cl)cc32)CC1` [Prochloperazine], for which the efflux ratio at 2 h in the series “in vitro” (setting [9]) is 0.35. This compound also gave a Papp A→B at 2 h in “in vitro” (setting [10]) of 1.29 ×10⁻⁶ cm/s. Moreover, the Papp B→A at 2 h in the series “in vitro” (setting [11]) is 0.46 ×10⁻⁶ cm/s. Besides, the Papp A→B at 60 min in the series with P-gp (MDR1) (setting [13]) is < 1.28 ×10⁻⁶ cm/s. Besides, in the series with P-gp (MDR1) (setting [14]), the Papp B→A at 60 min was < 0.59 ×10⁻⁶ cm/s.

With `OCCN(CCO)CC(O)CN1c2ccccc2Sc2ccc(C(F)(F)F)cc21` (stereo not shown) [MT-014, 2,2′-(2-hydroxy-3-(2-(trifluoromethyl)-10H-phenothiazin-10-yl)propylazanediyl)-diethanol], the “Tail and anemia phenotypes versus DMSO (in words)” value in series [5] (10 μM, three experiments) was “less severe tail and anemia phenotypes”.

In the case of `CN1CCN(CCCN2c3ccccc3Sc3ccc(S(=O)(=O)N(C)C)cc32)CC1` [Thioproperazine Dimesilate], the Papp A→B at 2 h in “in vitro” (setting [10]) came to 4.07 ×10⁻⁶ cm/s. The compound further showed a Papp B→A at 2 h in the series “in vitro” (setting [11]) of 3.51 ×10⁻⁶ cm/s. In the series with P-gp (MDR1) (setting [13]), this compound registered an apparent permeability from apical to basolateral (Papp A→B) at 60 min of 3.35 ×10⁻⁶ cm/s. Also, in the series on P-gp (MDR1) (setting [14]), the Papp B→A at 60 min turned out to be 3.56 ×10⁻⁶ cm/s.

(Values after patent publication US11542290B2 (priority 2018, dated 2023).)
